Test results as given in patent US20220168302A1, “SALTS OF A COMPOUND, CRYSTAL FORMS OF THE SALTS AND PREPARATION METHOD AND USE THEREOF” (Gan & Lee Pharmaceuticals Co., Ltd., priority 2019, published 2022).
≈ marks a conversion by molar mass, not a printed value. Where two headings read alike, the source gives them in different places.

Experiments:
Assay type in all cases: physicochemical
[1] = Dynamic moisture adsorption (DVS) hygroscopicity test; conditions: for Hygroscopicity (moisture adsorption capacity): DVS, 25° C./80% RH; for Whether the crystal form has a change: XRPD before and after DVS test
Experimental: The moisture adsorption capacities of the representative salts and the free base of the above Examples and Comparative Examples were tested when the humidity reached 80% RH through a dynamic moisture adsorption (DVS) test at 25° C., so as to compare the hygroscopicities.
Experimental results: the test results are shown in Table 13, wherein, >15% means very hygroscopic, 2% to 15% means hygroscopic, 0.2% to 2% means slightly hygroscopic, and <0.2% means almost non-hygroscopic.

[2] = Solid-state stability test, one week, HPLC purity; conditions: for HPLC purity 1 week: open container; for HPLC purity, Initial purity: before storage
Experimental: Experimental method: appropriate amount of samples were respectively weighed and placed in open containers under the conditions of light illumination of 4500 lux, 25° C./60% RH and 40° C./75% RH to perform solid-state stability test evaluation for one week. One week later, the purities of the test samples were tested by HPLC to detect the change of purity. Three groups of parallel tests were set for each test condition.
High performance liquid chromatograms were collected on an Agilent 1100 HPLC.

[3] = Solubility test in water, FaSSIF and FeSSIF (24 h, 37° C., HPLC concentration); conditions: initial feeding amount 10 mg/ml; for solubility at 24 h: 37 °C, thermodynamic from solid
Experimental: Experimental method: the solubility test was carried out in three solvents including water, fasted state simulated intestinal fluid (FaSSIF) and fed state simulated intestinal fluid (FeSSIF), to evaluate the solubilities of the salts of the present invention.
In the experiment, the sample and the solvent were mixed in a centrifuge tube (the initial feeding amount was 10 mg/ml), then the centrifuge tube was sealed and fixed on a rotating disk with a rotation speed of 25 rpm, and sampling was performed after rotating and mixing for 24 h at 37° C. The turbid sample was subjected to centrifugal separation, and the filtered supernatant was measured for HPLC concentration. If the sample solution was clear, the concentration of the obtained solution was measured.

[4] = as above; conditions: stated in background
[5] = fasted state simulated intestinal fluid
[6] = fed state simulated intestinal fluid
[7] = FaSSIF, fassif, fasted state simulated intestinal fluid, read-out: Solubility in FaSSIF
[8] = FeSSIF, fessif, fed state simulated intestinal fluid, read-out: Solubility in FeSSIF
[9] = water, water, water, read-out: Solubility in water

Hygroscopicity (moisture adsorption capacity) [1] [%]	Whether the crystal form has a change [1]	HPLC purity 1 week Relative to the initial purity ([2]; 25° C./60% RH) [%]	HPLC purity 1 week ([2]; 25° C./60% RH) [Area %]	HPLC purity 1 week Relative to the initial purity ([2]; 40° C./75% RH) [%]	HPLC purity 1 week ([2]; 40° C./75% RH) [Area %]	HPLC purity 1 week Relative to the initial purity ([2]; Light illumination 4500 lux) [%]	HPLC purity 1 week ([2]; Light illumination 4500 lux) [Area %]	HPLC purity, Initial purity [2] [Area %]	Solubility in FaSSIF [3, 5] [mg/mL]	Solubility in water ([3]; water) [mg/mL]	solubility at 24 h [3, 7] [mg/mL]	solubility at 24 h [3, 8] [mg/mL]	SMILES	further results
9.12	Change												CC1=Nc2c(F)cc(-c3nc(Nc4ccc(C5CCN(C)CC5)cn4)ncc3F)cc2C12CCCC2.Cl [Hydrochloride crystal form B, Hydrochloride of 5-fluoro-4-(7′-fluoro-2′-methylspiro[cyclopentane-1,3′-indol]-5′-yl)-N-(5-(1-methylpiperidin-4-yl)pyridin-2-yl)pyrimidine-2-amine, reference compound]	Whether the crystal form has a change ([1]; listed as hydrochloride crystal form B): changed to amorphous
0.22	No change	100.0	99.88	100.0	99.89	100.0	99.88	99.90	6.8 (≈ 13.9 mM)	6.5 (≈ 13.3 mM)			CC1=Nc2c(F)cc(-c3nc(Nc4ccc(C5CCN(C)CC5)cn4)ncc3F)cc2C12CCCC2 [Adipate crystal form A, Adipate of 5-fluoro-4-(7′-fluoro-2′-methylspiro[cyclopentane-1,3′-indol]-5′-yl)-N-(5-(1-methylpiperidin-4-yl)pyridin-2-yl)pyrimidine-2-amine]	Whether the crystal form has a change ([1]; listed as adipate crystal form A): no change; HPLC purity 1 week Relative to the initial purity ([2]; 40° C./75% RH, listed as adipate crystal form A): 100%; HPLC purity 1 week Relative to the initial purity ([2]; Light illumination 4500 lux, listed as adipate crystal form A): 100%; Solubility in FeSSIF [3, 6]: 11.6 mg/mL (≈ 23.7 mM)
0.35	No change	100.0	99.89	100.0	99.88	100.0	99.89	99.92		6.3	7.6	8	CC1=Nc2c(F)cc(-c3nc(Nc4ccc(C5CCN(C)CC5)cn4)ncc3F)cc2C12CCCC2.O=C(O)/C=C/C(=O)O [Fumarate crystal form A, Fumarate of 5-fluoro-4-(7′-fluoro-2′-methylspiro[cyclopentane-1,3′-indol]-5′-yl)-N-(5-(1-methylpiperidin-4-yl)pyridin-2-yl)pyrimidine-2-amine]	Whether the crystal form has a change ([1]; listed as fumarate crystal form A): no change; HPLC purity 1 week Relative to the initial purity ([2]; 40° C./75% RH, listed as fumarate crystal form A): 100%; HPLC purity 1 week Relative to the initial purity ([2]; Light illumination 4500 lux, listed as fumarate crystal form A): 100%
0.10	No change	100.0	100.0	99.9	99.92	99.3	99.28	100.00	0.19 (≈ 0.389 mM)	0.075 (≈ 0.154 mM)		10.2 (≈ 20.9 mM)	CC1=Nc2c(F)cc(-c3nc(Nc4ccc(C5CCN(C)CC5)cn4)ncc3F)cc2C12CCCC2 [Free base crystal form A, 5-fluoro-4-(7′-fluoro-2′-methylspiro[cyclopentane-1,3′-indol]-5′-yl)-N-(5-(1-methylpiperidin-4-yl)pyridin-2-yl)pyrimidine-2-amine, reference compound]	solubility [4]: 0.075 mg/mL (≈ 0.154 mM); HPLC purity 1 week Relative to the initial purity ([2]; Light illumination 4500 lux, listed as free base crystal form A): 99.3%
0.33	No change	100.0	99.90	100.00	99.90	100.0	99.90	99.94			6.4	10.7	CC1=Nc2c(F)cc(-c3nc(Nc4ccc(C5CCN(C)CC5)cn4)ncc3F)cc2C12CCCC2.O=C(O)CCC(=O)O [Succinate crystal form A, Succinate of 5-fluoro-4-(7′-fluoro-2′-methylspiro[cyclopentane-1,3′-indol]-5′-yl)-N-(5-(1-methylpiperidin-4-yl)pyridin-2-yl)pyrimidine-2-amine]	Whether the crystal form has a change ([1]; listed as succinate crystal form A): no change; HPLC purity 1 week Relative to the initial purity ([2]; 40° C./75% RH, listed as succinate crystal form A): 100%; HPLC purity 1 week Relative to the initial purity ([2]; Light illumination 4500 lux, listed as succinate crystal form A): 100%; solubility at 24 h [3, 9]: 7.5 mg/mL
12.02	Change	99.9	99.73	99.4	99.16	98.5	98.28	99.81					CC1=Nc2c(F)cc(-c3nc(Nc4ccc(C5CCN(C)CC5)cn4)ncc3F)cc2C12CCCC2.CS(=O)(=O)O [Methanesulfonate crystal form A, Methanesulfonate of 5-fluoro-4-(7′-fluoro-2′-methylspiro[cyclopentane-1,3′-indol]-5′-yl)-N-(5-(1-methylpiperidin-4-yl)pyridin-2-yl)pyrimidine-2-amine, reference compound]	Whether the crystal form has a change ([1]; listed as methanesulfonate crystal form A): changed to amorphous
		100.0	99.48	100.0	99.48	100.0	99.46	99.48	5.9	0.48			CC1=Nc2c(F)cc(-c3nc(Nc4ccc(C5CCN(C)CC5)cn4)ncc3F)cc2C12CCCC2.O=C(O)/C=C/C(=O)O [Fumarate crystal form C, Fumarate of 5-fluoro-4-(7′-fluoro-2′-methylspiro[cyclopentane-1,3′-indol]-5′-yl)-N-(5-(1-methylpiperidin-4-yl)pyridin-2-yl)pyrimidine-2-amine]	HPLC purity 1 week Relative to the initial purity ([2]; 40° C./75% RH, listed as fumarate crystal form C): 100%; HPLC purity 1 week Relative to the initial purity ([2]; Light illumination 4500 lux, listed as fumarate crystal form C): 100%; Solubility in FeSSIF [3, 6]: 13.6 mg/mL
2.00	No change	100.0	99.88	100.0	99.89	99.9	99.83	99.91			7.1	7.8	CC1=Nc2c(F)cc(-c3nc(Nc4ccc(C5CCN(C)CC5)cn4)ncc3F)cc2C12CCCC2.O=C(O)/C=C\C(=O)O [Maleate crystal form B, Maleate of 5-fluoro-4-(7′-fluoro-2′-methylspiro[cyclopentane-1,3′-indol]-5′-yl)-N-(5-(1-methylpiperidin-4-yl)pyridin-2-yl)pyrimidine-2-amine]	Whether the crystal form has a change ([1]; listed as maleate crystal form B): no change; HPLC purity 1 week Relative to the initial purity ([2]; 40° C./75% RH, listed as maleate crystal form B): 100%; solubility at 24 h [3, 9]: 12.9 mg/mL
